The results in this text go back to patent US7998989B2, “2-Imino-1,3-thiazoline-based compounds and T-type calcium channel inhibitors containing the same” (Korea Institute of Science and Technology, priority 2007, dated 2011).

Like-named read-outs stand apart in the source and are kept apart here.

For series [1], the target named is T1, α1G T-type calcium channel (Homo sapiens, UniProt O43497).
T1 construct: host or cells: HEK293
In words: Assay for % inhibiting activity against T-type calcium channel using FDSS6000 (fluo-3 calcium imaging, KCl activation). It is filed as cell-based. Put shortly:
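HEK293 cells stably expressing α1G and Kir2.1 loaded with 5 μM fluo-3/AM, then in HEPES buffer (pH 7.4) with 10 mM CaCl2. Compound applied 75 s before 75 mM KCl; intracellular Ca2+ read as […] area, % inhibition relative to untreated control.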

Setting [2] is: 10 μM, FDSS (% inhibition), comparative compounds where R6 is a phenyl group, read-out: FDSS.
Where [3] appears, read: HEK293, 10 μM, HEK293 cells stably expressing α1G T-type calcium channel and Kir2.1, compounds of the examples, read-out: FDSS (% inhibition)/10uM.

T1 sequence (O43497 whole entry): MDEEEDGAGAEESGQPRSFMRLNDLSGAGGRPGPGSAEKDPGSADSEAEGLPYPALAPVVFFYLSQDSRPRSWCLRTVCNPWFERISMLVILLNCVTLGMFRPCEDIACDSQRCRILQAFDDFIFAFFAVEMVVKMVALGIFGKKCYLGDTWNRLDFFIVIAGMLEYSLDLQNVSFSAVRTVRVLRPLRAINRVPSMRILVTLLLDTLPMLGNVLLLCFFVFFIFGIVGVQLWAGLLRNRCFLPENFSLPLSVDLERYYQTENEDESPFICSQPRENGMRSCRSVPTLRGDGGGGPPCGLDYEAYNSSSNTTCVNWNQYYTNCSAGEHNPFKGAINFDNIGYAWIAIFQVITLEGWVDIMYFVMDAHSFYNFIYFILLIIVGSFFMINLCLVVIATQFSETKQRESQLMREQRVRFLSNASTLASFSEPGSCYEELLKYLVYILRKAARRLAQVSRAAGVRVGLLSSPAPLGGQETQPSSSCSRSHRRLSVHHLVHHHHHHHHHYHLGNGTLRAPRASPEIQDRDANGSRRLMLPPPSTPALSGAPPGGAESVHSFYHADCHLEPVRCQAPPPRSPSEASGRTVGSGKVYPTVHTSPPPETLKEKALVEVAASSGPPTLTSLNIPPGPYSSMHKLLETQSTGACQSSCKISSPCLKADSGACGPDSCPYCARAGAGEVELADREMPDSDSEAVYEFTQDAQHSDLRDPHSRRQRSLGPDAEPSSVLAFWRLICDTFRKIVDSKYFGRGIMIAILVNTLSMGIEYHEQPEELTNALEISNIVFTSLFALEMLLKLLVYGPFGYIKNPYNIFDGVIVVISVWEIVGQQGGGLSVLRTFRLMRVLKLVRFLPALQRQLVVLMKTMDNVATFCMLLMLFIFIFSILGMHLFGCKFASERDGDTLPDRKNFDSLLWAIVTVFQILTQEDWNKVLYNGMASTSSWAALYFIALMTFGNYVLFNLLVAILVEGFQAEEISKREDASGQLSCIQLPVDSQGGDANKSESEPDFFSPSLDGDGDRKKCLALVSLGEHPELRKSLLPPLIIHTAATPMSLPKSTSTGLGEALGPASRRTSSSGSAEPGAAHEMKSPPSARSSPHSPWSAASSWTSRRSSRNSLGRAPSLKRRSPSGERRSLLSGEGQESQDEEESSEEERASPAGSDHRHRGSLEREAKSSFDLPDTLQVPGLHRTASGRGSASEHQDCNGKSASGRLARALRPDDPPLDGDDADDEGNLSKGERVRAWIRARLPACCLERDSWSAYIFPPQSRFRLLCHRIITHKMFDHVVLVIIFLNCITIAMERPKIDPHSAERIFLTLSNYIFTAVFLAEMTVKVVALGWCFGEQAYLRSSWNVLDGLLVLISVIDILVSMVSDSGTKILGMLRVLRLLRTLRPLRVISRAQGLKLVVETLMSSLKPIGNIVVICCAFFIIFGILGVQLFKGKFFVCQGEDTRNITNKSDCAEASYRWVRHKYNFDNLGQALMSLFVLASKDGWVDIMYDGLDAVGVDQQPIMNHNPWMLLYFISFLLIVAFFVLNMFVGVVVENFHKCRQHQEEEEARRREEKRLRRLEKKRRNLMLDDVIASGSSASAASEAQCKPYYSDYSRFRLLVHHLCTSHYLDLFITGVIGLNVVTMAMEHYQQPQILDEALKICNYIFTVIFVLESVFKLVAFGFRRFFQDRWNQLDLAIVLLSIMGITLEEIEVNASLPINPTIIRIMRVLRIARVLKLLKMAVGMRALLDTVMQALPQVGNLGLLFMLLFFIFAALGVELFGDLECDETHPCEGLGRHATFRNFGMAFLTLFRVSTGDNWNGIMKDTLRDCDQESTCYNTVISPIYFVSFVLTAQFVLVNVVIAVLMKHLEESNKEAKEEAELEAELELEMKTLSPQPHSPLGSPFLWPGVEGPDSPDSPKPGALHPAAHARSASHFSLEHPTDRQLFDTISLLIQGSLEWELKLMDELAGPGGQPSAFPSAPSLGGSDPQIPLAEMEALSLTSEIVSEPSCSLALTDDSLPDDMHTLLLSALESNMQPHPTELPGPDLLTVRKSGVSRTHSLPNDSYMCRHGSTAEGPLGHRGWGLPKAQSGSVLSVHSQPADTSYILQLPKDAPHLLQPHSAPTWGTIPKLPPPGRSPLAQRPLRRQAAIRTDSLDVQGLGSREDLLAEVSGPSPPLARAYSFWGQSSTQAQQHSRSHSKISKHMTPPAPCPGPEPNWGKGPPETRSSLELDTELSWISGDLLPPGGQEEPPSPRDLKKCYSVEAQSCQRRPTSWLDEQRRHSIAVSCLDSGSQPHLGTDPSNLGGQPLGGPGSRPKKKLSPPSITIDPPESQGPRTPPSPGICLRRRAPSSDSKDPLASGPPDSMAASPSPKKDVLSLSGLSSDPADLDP

In turn, `CC(C)Oc1cc(N=C2SCC(CC(=O)Nc3ccc(C(C)C)cc3)N2C)c(F)cc1Cl.Cl` (stereo not shown) [KHG21944, [2-(4-chloro-5-isopropoxy-2-fluorophenylimino)-3-methyl-1,3-thiazolidine-4-yl]-N-(4-isopropylphenyl)-acetamide hydrochloride] yielded a melting point of 190 to 194 °C. Further, the inhibition at 10 µM in series [1] (setting [2]) was determined as 5.89%.

`CN1C(=Nc2ccc(-c3ccccc3)cc2)SCC1CC(=O)Nc1ccc(Cl)cc1F.Cl` (stereo not shown) [KHG23073, [2-(4-phenylphenylimino)-3-methyl-1,3-thiazolidine-4-yl]-N-(4-chloro-2-fluorophenyl)-acetamide hydrochloride] registered a melting point of 222 to 223 °C. The inhibition at 10 µM in series [1] (setting [2]) stood at 28.3%.

`Cc1ccc(NC(=O)CC2CSC(=NC34CC5CC(CC(C5)C3)C4)N2C(C)C)cc1Cl.Cl` (stereo not shown) [KHG24836, [2-(1-adamantylimino)-3-isopropyl-1,3-thiazolidine-4-yl]-N-(5-chloro-4-methylphenyl)-acetamide hydrochloride] came in with a melting point of 231 °C. Moreover, the inhibition at 10 µM in series [1] (setting [3]) was 48.9%.

On to `CN1C(=NC2C3CC4CC(C3)CC2C4)SCC1CC(=O)Nc1ccc(F)cc1.Cl` (stereo not shown) [KHG24842, [2-(2-adamantylimino)-3-methyl-1,3-thiazolidine-4-yl]-N-(4-fluorophenyl)-acetamide hydrochloride], for which the melting point came to 154 °C. For the same compound, in series [1] (setting [3]), the inhibition at 10 µM worked out at 59.8%.

In turn, `CC(C)c1ccc(NC(=O)CC2CSC(=NCC3CCCCC3)N2C)cc1.Cl` (stereo not shown) [KHG24222, (2-cyclohexylmethylimino-3-methyl-1,3-thiazolidine-4-yl)-N-(4-isopropylphenyl)-acetamide hydrochloride] had a melting point of 250.7 °C. The inhibition at 10 µM in series [1] (setting [3]) was 34.8%.

In turn, `CN1C(=Nc2ccc(C#N)cc2)SCC1CC(=O)Nc1ccc(Cl)cc1F.Cl` (stereo not shown) [KHG23067, [2-(4-cyanophenylimino)-3-methyl-1,3-thiazolidine-4-yl]-N-(4-chloro-2-fluorophenyl)-acetamide hydrochloride] returned a melting point of 136 to 137 °C. The inhibition at 10 µM in series [1] (setting [2]) is -2.73%.

Consider `CC(C)Oc1cccc(N=C2SCC(CC(=O)Nc3ccc(Cl)cc3)N2C)c1.Cl` (stereo not shown) [KHG21653, [2-(3-isopropoxyphenylimino)-3-methyl-1,3-thiazolidine-4-yl]-N-(4-chlorophenyl)-acetamide hydrochloride], for which the melting point is 201 to 203 °C. Further, the inhibition at 10 µM in series [1] (setting [2]) is -2.17%.

Take `CC1SC(=NC2CCCCCC2)N(C)C1CC(=O)Nc1ccccc1.Cl` (stereo not shown) [KHG24638, (2-cycloheptylimino-3,5-dimethyl-1,3-thiazolidine-4-yl)-N-phenyl-acetamide hydrochloride]: the melting point fell in the range of 236 to 238 °C. Further, the inhibition at 10 µM in series [1] (setting [3]) stood at 40.8%.

`COc1ccc(NC(=O)CC2CSC(=NC3CCCCC3)N2C)cc1Cl.Cl` (stereo not shown) [KHG24070, (2-cyclohexylimino-3-methyl-1,3-thiazolidine-4-yl)-N-(3-chloro-4-methoxyphenyl)-acetamide hydrochloride] registered a melting point of 233.5 to 235 °C. Besides, the inhibition at 10 µM in series [1] (setting [3]) was found to be 53%.

In turn, `Cl.O=C(CC1CSC(=NC2CCCCC2)N1C1CC1)Nc1ccc(Br)cc1` (stereo not shown) [KHG24273, [2-cyclohexylimino-3-cyclopropyl-1,3-thiazolidine-4-yl]-N-(4-bromophenyl)-acetamide hydrochloride] registered a melting point of 188.9 °C. Further, the inhibition at 10 µM in series [1] (setting [3]) was found to be 48.5%.

Regarding `CCCCN1C(=NC2CCCCC2)SCC1CC(=O)Nc1ccc(C)cc1Cl.Cl` (stereo not shown) [KHG24421, (2-cyclohexylimino-3-(n-butyl)-1,3-thiazolidine-4-yl)-N-(2-chloro-4-methylphenyl)-acetamide hydrochloride], the melting point lay in the range of 143 to 144 °C. Moreover, the inhibition at 10 µM in series [1] (setting [3]) was 65.8%.
